Laboratory results taken from patent US7470669B2, “Isolated polypeptide comprising a leptin fragment” (Serono Genetics Institute, S.A., priority 1999, dated 2008).
Marks after values point to notes of the source that are not given here.

Columns and labels:
LSR = LSR activity (oleate-induced 125I-LDL binding, uptake, degradation) in primary cultures of rat hepatocytes; format: cell-based; settings: for oleate-induced LDL degradation / oleate-induced LDL binding: primary rat hepatocytes; for oleate-induced LDL degradation: 22-mer peptides; for oleate-induced LDL binding: peptide concentrations <50 μg/mL
Procedure: FIGS. 6A, 6B, and 6C show the effect of leptin on ^125I-LDL and ^125I-chylomicron binding to LSR in primary cultures of rat hepatocytes. For FIG. 6A, primary cultures of rat hepatocytes (48 hours after plating) were incubated at 37° C. for 30 min in the absence (□) or presence (▪) of 50 ng/mL leptin in Buffer A, followed by a 20 min incubation at 37° C. with 0.5 mM oleate. The cells were then washed with ice-cold PBS, precooled for 10 min, and then incubated for 1 h at 4° C. with increasing concentrations of ^125I-LDL in Buffer A. Cells were washed, were lysed in 0.1 N NaOH and were counted for radioactivity. Results are shown as the mean of duplicate determinations. For FIG. 6B, primary cultures of rat hepatocytes were incubated at 37° C. for 30 min with or without 20 ng/mL leptin followed by incubation at 37° C. for 4 h with 6 μg protein/mL ^125I-chylomicrons in the absence or presence of 0.5 mM oleate in Buffer A. The cells were then washed and the ^125I-chylomicrons bound to the cell surface were released into the media by incubation with 10 mM suramin. The media was recovered and the radioactivity was measured. Results are shown as the mean±SD of six determinations. Fir FIG. 6C, after incubation at 37° C. for 30 min with 50 ng/mL leptin, the cells were incubated at room temperature for 30 min with 200 μg IgG/mL antibodies directed against rat LSR protein or irrelevant IgG. The amount of ^125I-chylomicrons bound was determined, and results are shown as means±SD of triplicate (irrelevant) or quadruplicate (anti-LSR) determinations.
FIGS. 7A and 7B show a comparison of the effect of human and mouse leptin on LSR activity in rat hepatocytes and on postprandial increase in plasma TG in db^Pas/db^Pas mice. For FIG. 7A, primary cultures of rat hepatocytes were incubated 30 min at 37° C. without (open bar) or with 10 ng/mL recombinant human (solid bar) or mouse (hatched bar) leptin in Buffer A. Oleate (0.5 mM) and ^125I-LDL (20 μg/mL) were added and the cells were incubated 2 h at 37° C. The media were removed and were analyzed for TCA-soluble degradation products. The mean of duplicate determinations is shown. For FIG. 7B, db^Pas/db^Pas mice were given a test meal as previously described, followed immediately by injection i.p. of saline (open bar, n=4), human leptin (1 μg/animal; solid bar, n=3) or mouse leptin (0.25 μg/animal; hatched bar; n=3). The data represent the difference in TG concentrations measured at t=0 and the average of the concentrations at 3 and 4 hours. Results are shown as mean±SEM.
Cells were incubated 30 min at 37° C. with increasing concentrations of mouse (▪) or human (●) leptin peptide. Following this, 0.5 mM oleate and 20 μg/mL ^125I-LDL were added and the cells were further incubated for 2 h at 37° C. The cells were washed, and the amount of oleate-induced ^125I-LDL bound and degraded was measured as described previously (Bihain, B. E., and Yen, F. T. (1992). Free fatty acids activate a high-affinity saturable pathway for degradation of low-density lipoproteins in fibroblasts from a subject homozygous for familial hypercholesterolemia. Biochemistry 31, 4628-4636).
FIGS. 11A and 11B show the effect of mouse leptin (FIG. 11A) or leptin peptide (FIG. 11B) on postprandial plasma TG response in ob/ob mice. […] Postprandial triglyceridemia was measured as described previously. Each point represents the mean±SEM (A: saline, n=8, leptin, n=7; leptin peptide: saline, n=8, leptin, n=8). […] Primary cultures of rat hepatocytes were incubated 30 min at 37° C. with increasing concentrations of mouse leptin peptide. Oleate (0.5 mM) and ^125I-LDL (20 μg/mL) were added and the cells were incubated 2 h at 37° C. After washing, the amount of 125I-LDL bound to the cell surface was measured as described in the Examples section herein. […]

ob/ob mice = assay: Postprandial plasma TG response after high-fat test meal in ob/ob mice; format: in vivo, mouse; settings: for postprandial lipemic response: single subcutaneous injection of 50 ng
Procedure: FIGS. 11A and 11B show the effect of mouse leptin (FIG. 11A) or leptin peptide (FIG. 11B) on postprandial plasma TG response in ob/ob mice. […] Postprandial triglyceridemia was measured as described previously. Each point represents the mean±SEM (A: saline, n=8, leptin, n=7; leptin peptide: saline, n=8, leptin, n=8). […] Primary cultures of rat hepatocytes were incubated 30 min at 37° C. with increasing concentrations of mouse leptin peptide. Oleate (0.5 mM) and ^125I-LDL (20 μg/mL) were added and the cells were incubated 2 h at 37° C. After washing, the amount of 125I-LDL bound to the cell surface was measured as described in the Examples section herein.
Mice that were fasted for 2-3 hours were gavage-fed 300 μL of a test meal consisting of 60% fat (37% saturated, 27% mono-, and 36% polyunsaturated fatty acids), 20% protein and 20% carbohydrate, and providing 56 kcal of energy/kg (1.5 g butter, 1.5 g sunflower oil, 2.5 g nonfat dry milk, 2.5 g sucrose and 3 ml water). Immediately after the meal, the animals were injected intravenously (db/db) or intraperitoneally (db^Pas/db^Pas) with either 200 μL physiological saline or 200 μL of the same solution containing recombinant mouse leptin. At selected time intervals, 20 μL of blood were collected from the orbital (db^Pas/db^Pas) or tail (db/db) vein into ice-cold microfuge tubes containing 4 mmol/L EDTA. Plasma was obtained by centrifugation at 2500 rpm for 20 min at 4° C., and was frozen as aliquots at −80° C. before analysis. TG concentrations were determined using a commercially available enzymatic kit with controls included in each assay (Precinorm L, Roche-Boehringer Mannheim; Lyotrol N, BioMérieux).
The inhibition of the intestinal absorption of dietary lipids by leptin was also investigated. Overnight-fasted ob/ob mice were gavage-fed a high fat test meal. […] Blood samples were taken at 2 and 3 h after the test meal, and plasma TG concentrations were measured (see Table, below). […]

Row | Substance | oleate-induced LDL degradation (LSR) | oleate-induced LDL binding (LSR) | oleate-induced binding of 125I-LDL (LSR; primary cultures of rat hepatocytes (FIG. 11B insert)) | postprandial lipemic response (ob/ob mice) | Plasma TG 2-3 hours after test meal (ob/ob mice; i.v. 0.5 μg recombinant mouse leptin and/or 2.5 mg lactoferrin, mean ± SD)
1 | CHLPWASGLETLDSLGGVLEAS (listed as Homo sapiens) [human peptide, human leptin fragment residues 117-138, 22-mer] | inhibitory effect | increased | – | – | –
2 | CSLPQTSGLQKPESLDGVLEAS (listed as Mus musculus) [mouse peptide, mouse leptin fragment residues 117-138, 22-mer] | inhibitory effect | increased | stimulate | reduced the postprandial lipemic response | –
3 | leptin: plasma protein of 16 kDa produced by adipocytes; recombinant human or mouse leptin, species depends on the experiment | – | – | – | decreases the postprandial lipemic response | 0.79 ± 0.1* mg/mL
